From patent US20260364184A1, “COMPOUND BASED ON OXOISOINDOLINYL-SUBSTITUTED TETRAHYDROPYRIMIDINE-DIONE AND USE THEREOF” (GLUETACS THERAPEUTICS (SHANGHAI) CO., LTD., priority 2023, published 2026)

How the values were obtained:
[1] = tested on: Human myeloid monocytic leukemia cell line (MV-4-11); assay: Inhibition of MV-4-11 cell proliferation (CellTiter luminescent viability); type: cell-based; settings: Homo sapiens, MV4-11, Table IE3, CDK4/6 inhibitor-based, 96 hours; for inhibition at 0.01 µM: MV-4-11, 10 nM, read-out: Inhibition Rate at 10 nM (%); for inhibition at 0.5 µM: MV-4-11, 500 nM, read-out: Inhibition Rate at 500 nM (%)
Outline: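 IC50 is fitted from luminescent viability (CellTiter-Meiluncell) curves. Nine-point, 5-fold dilution series (top stock 2000 μM) are added at 0.5 μL per 100 μL medium to cells plated the day before, with growth at 37 °C and 5% CO2.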

[2] = molecular target: T1, CDK4 (Homo sapiens, UniProt P11802+Q96SW2); assay: Western blot degradation of CDK4; type: cell-based; settings: MDA-MB-231 Cell; 24 hours
T1 construct: expression of target proteins in cells; endogenous in cells
T1 sequence (P11802 whole entry): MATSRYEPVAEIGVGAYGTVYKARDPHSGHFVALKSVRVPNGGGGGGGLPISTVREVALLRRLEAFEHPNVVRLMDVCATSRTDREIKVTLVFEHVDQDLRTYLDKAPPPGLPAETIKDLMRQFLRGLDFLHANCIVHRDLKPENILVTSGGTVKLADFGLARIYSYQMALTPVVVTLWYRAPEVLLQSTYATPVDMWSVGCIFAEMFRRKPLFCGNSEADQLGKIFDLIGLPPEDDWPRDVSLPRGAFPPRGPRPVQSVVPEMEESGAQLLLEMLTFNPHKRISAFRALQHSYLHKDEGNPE
T1 sequence (Q96SW2 whole entry): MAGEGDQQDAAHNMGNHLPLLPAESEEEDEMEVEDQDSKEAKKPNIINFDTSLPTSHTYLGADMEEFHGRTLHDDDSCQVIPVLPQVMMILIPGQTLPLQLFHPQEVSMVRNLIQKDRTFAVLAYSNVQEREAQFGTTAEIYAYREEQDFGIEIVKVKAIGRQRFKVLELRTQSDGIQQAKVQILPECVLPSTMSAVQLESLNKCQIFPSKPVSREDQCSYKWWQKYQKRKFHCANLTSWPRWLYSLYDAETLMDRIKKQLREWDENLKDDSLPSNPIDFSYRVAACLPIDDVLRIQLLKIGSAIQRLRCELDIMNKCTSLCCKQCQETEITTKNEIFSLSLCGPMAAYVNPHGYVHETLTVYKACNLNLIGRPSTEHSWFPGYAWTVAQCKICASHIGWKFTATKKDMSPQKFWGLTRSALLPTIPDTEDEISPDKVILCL
T1 sequence (Q16531 whole entry partner): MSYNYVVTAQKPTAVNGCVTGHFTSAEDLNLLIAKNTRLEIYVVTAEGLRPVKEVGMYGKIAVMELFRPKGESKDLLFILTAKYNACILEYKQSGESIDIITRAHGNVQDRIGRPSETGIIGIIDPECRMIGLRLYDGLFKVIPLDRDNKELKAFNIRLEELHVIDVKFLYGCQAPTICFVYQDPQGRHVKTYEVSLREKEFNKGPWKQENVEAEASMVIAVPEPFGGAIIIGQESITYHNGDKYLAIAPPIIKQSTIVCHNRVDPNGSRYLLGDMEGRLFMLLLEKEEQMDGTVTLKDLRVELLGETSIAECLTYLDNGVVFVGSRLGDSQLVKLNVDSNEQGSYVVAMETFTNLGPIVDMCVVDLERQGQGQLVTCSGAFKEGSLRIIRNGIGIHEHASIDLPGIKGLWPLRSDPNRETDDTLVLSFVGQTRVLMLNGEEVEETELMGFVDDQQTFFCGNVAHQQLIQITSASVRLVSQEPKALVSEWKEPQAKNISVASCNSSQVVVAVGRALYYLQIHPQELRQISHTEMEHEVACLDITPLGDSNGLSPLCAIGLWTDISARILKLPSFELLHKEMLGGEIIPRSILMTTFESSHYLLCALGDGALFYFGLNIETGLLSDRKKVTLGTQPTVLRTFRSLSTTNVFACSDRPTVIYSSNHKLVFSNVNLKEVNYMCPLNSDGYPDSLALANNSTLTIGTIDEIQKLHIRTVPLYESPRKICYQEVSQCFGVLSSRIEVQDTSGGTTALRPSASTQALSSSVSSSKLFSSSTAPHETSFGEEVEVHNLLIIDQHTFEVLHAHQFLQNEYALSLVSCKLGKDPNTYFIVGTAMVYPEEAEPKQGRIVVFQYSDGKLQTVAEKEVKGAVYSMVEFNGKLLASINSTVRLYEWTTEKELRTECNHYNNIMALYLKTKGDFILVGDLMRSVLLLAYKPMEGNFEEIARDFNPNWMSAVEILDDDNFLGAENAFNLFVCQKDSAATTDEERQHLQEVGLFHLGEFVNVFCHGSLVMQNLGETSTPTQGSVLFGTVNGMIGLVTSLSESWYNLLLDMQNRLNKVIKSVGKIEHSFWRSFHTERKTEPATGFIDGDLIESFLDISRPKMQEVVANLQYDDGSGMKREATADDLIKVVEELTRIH
Procedure: (§1) Conventional Western blot assay was performed to evaluate the effects of the compounds of the present disclosure on the expression of target proteins in cells.
(§2) (1) Cell Seeding and Protein Harvesting: The selected cells were processed according to the cell seeding procedure and protein harvesting procedure in Table II-2.
(§3) (2) To the collected supernatant, 5×SDS sample loading buffer was added, followed by denaturation at 95 °C for 5 minutes. The denatured samples were then separated by SDS-PAGE electrophoresis on a polyacrylamide gel. Proteins were transferred to a nitrocellulose membrane (0.45 μm NC membrane), blocked with blocking buffer at room temperature for 1 hour, and subjected to antibody incubation and development procedures according to the antibody manufacturer's instructions (Cell Signaling Technology).
(§4) Half-Maximal Degradation Concentration value (the drug concentration required for degrading proteins by 50%, abbreviated as DC50) reads method: comparing the grayscale values of Western blot bands from drug-treated samples with those from blank DMSO-treated controls, and identifying the drug concentration range at which the grayscale value is half that of the DMSO-treated control bands.
(§5) DC50 values can be calculated using ImageJ software to measure grayscale values of Western blot bands from drug-treated samples. The concentration-response curve is fitted to estimate the drug concentration corresponding to half the grayscale value.
(§6) Target protein remaining (%) refers to the percentage of target protein remaining in cells after treatment with protein degrader compounds.
(§7) Calculation method for target protein remaining (%): Use ImageJ software to measure grayscale values of Western blot bands from drug (protein degrader)-treated samples. The grayscale value of drug-treated bands is divided by that of internal control protein bands, and the resulting quotient is normalized to obtain the relative percentage of remaining target protein after protein degrader treatment.
(§8) Target protein degradation rate (%)=1−target protein remaining (%).

[3] = molecular target: T2, CDK6 (Homo sapiens, UniProt Q00534+Q96SW2); assay: Western blot degradation of CDK6; type: cell-based; settings: MDA-MB-231 Cell; 24 hours
T2 construct: expression of target proteins in cells; endogenous in cells
T2 sequence (Q00534 whole entry): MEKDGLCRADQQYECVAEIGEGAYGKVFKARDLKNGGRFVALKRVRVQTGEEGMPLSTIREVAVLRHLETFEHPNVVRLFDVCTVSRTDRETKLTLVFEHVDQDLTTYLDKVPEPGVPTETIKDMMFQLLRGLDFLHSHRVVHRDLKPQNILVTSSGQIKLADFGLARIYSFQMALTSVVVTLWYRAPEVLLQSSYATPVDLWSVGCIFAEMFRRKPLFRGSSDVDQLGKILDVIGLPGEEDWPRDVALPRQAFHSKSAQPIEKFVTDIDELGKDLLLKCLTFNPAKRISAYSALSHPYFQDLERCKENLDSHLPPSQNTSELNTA
T2 sequence (Q96SW2 whole entry): as the sequence (Q96SW2 whole entry) above
T2 sequence (Q16531 whole entry partner): as the sequence (Q16531 whole entry partner) above
Procedure: as §1, §2, §3, §4, §5, §6, §7, §8

[4] = tested on: Human lung cancer cell line (H292); assay: Inhibition of H292 cell proliferation (CellTiter luminescent viability); type: cell-based; settings: NCI-H292, Table IE2, CDK4/6 inhibitor-based, 96 hours; for inhibition at 0.01 µM: H292, 10 nM, read-out: Inhibition Rate at 10 nM (%); for inhibition at 0.5 µM: H292, 500 nM, read-out: Inhibition Rate at 500 nM (%)
[5] = molecular target: T3, human Cereblon WT GST-tagged protein (CRBN) (Homo sapiens, UniProt Q96SW2); assay: CRBN binding by HTRF (Cereblon binding kit)
T3 construct: purchased CISBIO 64BDCRBNPEH
T3 sequence (Q96SW2 whole entry): as the sequence (Q96SW2 whole entry) above
Outline: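 GST-tagged human Cereblon WT was incubated 3 h at room temperature with compound, thalidomide-Re tracer and Eu anti-GST antibody. Final compound concentrations were 10 to 0.00064 µM (7 points) or 2 and 0.5 µM. Inhibition rate was calculated from HTRF 665/620 nm ratios versus solvent and blank controls.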

Compound | Degradation of substrate protein CDK6 (substrate protein remaining %) [3] | inhibition at 0.5 µM ([5]; 0.5 μM, read-out: Inhibition Rate at 0.5 μM (%)) [%] | inhibition at 2 µM ([5]; 2 μM, read-out: Inhibition Rate at 2 μM (%)) [%] | inhibition at 0.01 µM [1] [%] | inhibition at 0.5 µM [1] [%] | Degradation of substrate protein CDK4 (substrate protein remaining %) [2] | inhibition at 0.01 µM [4] [%] | inhibition at 0.5 µM [4] [%]
CN(C)C(=O)c1cc2cnc(Nc3ccc(N4CCN(CC5CCN(c6ccc7c(c6)C(=O)N(N6CCC(=O)NC6=O)C7=O)CC5)CC4)cn3)nc2n1C1CCCC1 [GT-06337, 7-cyclopentyl-2-((5-(4-((1-(2-(2,4-dioxotetrahydropyrimidin-1(2H)-yl)-1,3-dioxoisoindolin-5-yl)piperidin-4-yl)methyl)piperazin-1-yl)pyridin-2-yl)amino)-N,N-dimethyl-7H-pyrrolo[2,3-d]pyrimidine-6-carboxamide] | A (0%≤substrate protein remaining %≤80%) |  |  |  |  | B (80%<substrate protein remaining %≤100%) |  | 
CN(C)C(=O)c1cc2cnc(Nc3ccc(N4CCC(CN5CCN(c6ccc7c(c6F)C(=O)N(N6CCC(=O)NC6=O)C7=O)CC5)CC4)cn3)nc2n1C1CCCC1 [GT-05203, 7-cyclopentyl-2-((5-(4-((4-(2-(2,4-dioxotetrahydropyrimidin-1(2H)-yl)-4-fluoro-1,3-dioxoisoindolin-5-yl)piperazin-1-yl)methyl)piperidin-1-yl)pyridin-2-yl)amino)-N,N-dimethyl-7H-pyrrolo[2,3-d]pyrimidine-6-carboxamide] | A (0%≤substrate protein remaining %≤80%) |  |  |  |  | B (80%<substrate protein remaining %≤100%) |  | 
CN(C)C(=O)c1cc2cnc(Nc3ccc(N4CCC(CN5CCN(C6CCN(c7ccc8c(c7)C(=O)N(N7CCC(=O)NC7=O)C8=O)CC6(F)F)CC5)CC4)cn3)nc2n1C1CCCC1 (stereo not drawn) [GT-05206, 7-cyclopentyl-2-((5-(4-((4-(1-(2-(2,4-dioxotetrahydropyrimidin-1(2H)-yl)-1,3-dioxoisoindolin-5-yl)-3,3-difluoropiperidin-4-yl)piperazin-1-yl)methyl)piperidin-1-yl)pyridin-2-yl)amino)-N,N-dimethyl-7H-pyrrolo[2,3-d]pyrimidine-6-carboxamide] | A (0%≤substrate protein remaining %≤80%) |  |  |  |  | B (80%<substrate protein remaining %≤100%) |  | 
CN(C)C(=O)c1cc2cnc(Nc3ccc(N4CCC(CN5CCN(c6cc7c(cc6F)C(=O)N(N6CCC(=O)NC6=O)C7=O)CC5)CC4)cn3)nc2n1C1CCCC1 [GT-05199, 7-cyclopentyl-2-((5-(4-((4-(2-(2,4-dioxotetrahydropyrimidin-1(2H)-yl)-6-fluoro-1,3-dioxoisoindolin-5-yl)piperazin-1-yl)methyl)piperidin-1-yl)pyridin-2-yl)amino)-N,N-dimethyl-7H-pyrrolo[2,3-d]pyrimidine-6-carboxamide] | A (0%≤substrate protein remaining %≤80%) |  |  |  |  | B (80%<substrate protein remaining %≤100%) | 40 to 60 | 35 to 40
CN(C)C(=O)c1cc2cnc(Nc3ccc(N4CCC(CN5C6CC5CN(c5ccc7c(c5)C(=O)N(N5CCC(=O)NC5=O)C7=O)C6)CC4)cn3)nc2n1C1CCCC1 [GT-05820, 7-cyclopentyl-2-((5-(4-((3-(2-(2,4-dioxotetrahydropyrimidin-1(2H)-yl)-1,3-dioxoisoindolin-5-yl)-3,6-diazabicyclo[3.1.1]heptan-6-yl)methyl)piperidin-1-yl)pyridin-2-yl)amino)-N,N-dimethyl-7H-pyrrolo[2,3-d]pyrimidine-6-carboxamide] | A (0%≤substrate protein remaining %≤80%) |  |  |  |  | B (80%<substrate protein remaining %≤100%) |  | 

Continued, in another order:

Degradation of substrate protein CDK6 (substrate protein remaining %) [3] | inhibition at 0.5 µM ([5]; 0.5 μM, read-out: Inhibition Rate at 0.5 μM (%)) [%] | inhibition at 2 µM ([5]; 2 μM, read-out: Inhibition Rate at 2 μM (%)) [%] | Compound | inhibition at 0.01 µM [1] [%] | inhibition at 0.5 µM [1] [%] | Degradation of substrate protein CDK4 (substrate protein remaining %) [2] | inhibition at 0.01 µM [4] [%] | inhibition at 0.5 µM [4] [%]
A (0%≤substrate protein remaining %≤80%) |  |  | CC(=O)c1c(C)c2cnc(Nc3ccc(N4CCC(N(C)Cc5ccc6c(c5)CN(N5CCC(=O)NC5=O)C6=O)CC4)cn3)nc2n(C2CCCC2)c1=O [GT-06586, 1-(5-(((1-(6-((6-acetyl-8-cyclopentyl-5-methyl-7-oxo-7,8-dihydropyrido[2,3-d]pyrimidin-2-yl)amino)pyridin-3-yl)piperidin-4-yl)(methyl)amino)methyl)-1-oxoisoindolin-2-yl)dihydropyrimidine-2,4 (1H,3H)-dione] | 25 to 30 | 40 to 60 | A (0%≤substrate protein remaining %≤80%) |  | 
A (0%≤substrate protein remaining %≤80%) |  |  | CN(C)C(=O)c1cc2cnc(Nc3ccc(N4CCC(N(C)CC5CCN(c6ccc7c(c6)C(=O)N(N6CCC(=O)NC6=O)C7=O)CC5)CC4)cn3)nc2n1C1CCCC1 [GT-06489, 7-cyclopentyl-2-((5-(4-(((1-(2-(2,4-dioxotetrahydropyrimidin-1(2H)-yl)-1,3-dioxoisoindolin-5-yl)piperidin-4-yl)methyl)(methyl)amino)piperidin-1-yl)pyridin-2-yl)amino)-N,N-dimethyl-7H-pyrrolo[2,3-d]pyrimidine-6-carboxamide] | 25 to 30 | 40 to 60 | A (0%≤substrate protein remaining %≤80%) | 30 to 35 | 40 to 60
A (0%≤substrate protein remaining %≤80%) |  |  | CN(C)C(=O)c1cc2cnc(Nc3ccc(N4CCN(CC5CCN(c6cccc7c6C(=O)N(N6CCC(=O)NC6=O)C7=O)CC5)CC4)cn3)nc2n1C1CCCC1 [GT-06338, 7-cyclopentyl-2-((5-(4-((1-(2-(2,4-dioxotetrahydropyrimidin-1(2H)-yl)-1,3-dioxoisoindolin-4-yl)piperidin-4-yl)methyl)piperazin-1-yl)pyridin-2-yl)amino)-N,N-dimethyl-7H-pyrrolo[2,3-d]pyrimidine-6-carboxamide] |  |  | A (0%≤substrate protein remaining %≤80%) | 30 to 35 | 40 to 60
A (0%≤substrate protein remaining %≤80%) |  |  | CN(C)C(=O)c1cc2cnc(Nc3ccc(N4CCC(N(C)Cc5ccc6c(c5)CN(N5CCC(=O)NC5=O)C6=O)CC4)cn3)nc2n1C1CCCC1 [GT-06487, 7-cyclopentyl-2-((5-(4-(((2-(2,4-dioxotetrahydropyrimidin-1(2H)-yl)-1-oxoisoindolin-5-yl)methyl)(methyl)amino)piperidin-1-yl)pyridin-2-yl)amino)-N,N-dimethyl-7H-pyrrolo[2,3-d]pyrimidine-6-carboxamide] |  |  | A (0%≤substrate protein remaining %≤80%) | 25 to 30 | 40 to 60
A (0%≤substrate protein remaining %≤80%) |  |  | Cc1nc2c(F)cc(-c3nc(Nc4ccc(N5CCN(Cc6ccc7c(c6)C(=O)N(N6CCC(=O)NC6=O)C7=O)CC5)cn4)ncc3F)cc2n1C(C)C [GT-06673, 2-(2,4-dioxotetrahydropyrimidin-1(2H)-yl)-5-((4-(6-((5-fluoro-4-(4-fluoro-1-isopropyl-2-methyl-1H-benzo[d]imidazol-6-yl)pyrimidin-2-yl)amino)pyridin-3-yl)piperazin-1-yl)methyl)isoindoline-1,3-dione] |  |  | B (80%<substrate protein remaining %≤100%) |  | 
A (0%≤substrate protein remaining %≤80%) | 30 to 40 | 53 to 60 | Cc1nc2c(F)cc(-c3nc(Nc4ccc(CN5CCN(CC6CCN(c7ccc8c(c7)C(=O)N(N7CCC(=O)NC7=O)C8=O)CC6)CC5)cn4)ncc3F)cc2n1C(C)C [GT-06662, 2-(2,4-dioxotetrahydropyrimidin-1(2H)-yl)-5-(4-((4-((6-((5-fluoro-4-(4-fluoro-1-isopropyl-2-methyl-1H-benzo[d]imidazol-6-yl)pyrimidin-2-yl)amino)pyridin-3-yl)methyl)piperazin-1-yl)methyl)piperidin-1-yl)isoindoline-1,3-dione] |  |  | B (80%<substrate protein remaining %≤100%) |  | 
